Test results as given in PubChem BioAssay (NCI).
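Values below derive from 48-hour exposures of cells grown in 96-well plates, with endpoints linearly interpolated between the two concentrations bracketing the appropriate inhibition level. TGI is the concentration that stops growth completely.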

Tests used:
Test in all cases: DTP human tumour cell line panel, 48 h
[1] = system: SNB-75 CNS
[2] = system: SN12C renal
[3] = system: HS 578T breast
[4] = system: T-47D breast
[5] = system: EKVX NSCLC
[6] = system: BT-549 breast
[7] = system: HOP-92 NSCLC
[8] = system: M14 melanoma
[9] = system: PC-3 prostate
[10] = system: OVCAR-3 ovarian
[11] = system: UO-31 renal
[12] = system: RXF 393 renal
[13] = system: MALME-3M melanoma
[14] = system: TK-10 renal
[15] = system: OVCAR-4 ovarian
[16] = system: CCRF-CEM leukemia
[17] = system: DU-145 prostate
[18] = system: A498 renal
[19] = system: K-562 leukemia
[20] = system: SK-MEL-28 melanoma
[21] = system: OVCAR-5 ovarian
[22] = system: LOX IMVI melanoma
[23] = system: KM12 colon
[24] = system: U251 CNS
[25] = system: MDA-MB-231 breast
[26] = system: CAKI-1 renal
[27] = system: SK-MEL-5 melanoma
[28] = system: HT29 colon
[29] = system: OVCAR-8 ovarian
[30] = system: COLO 205 colon
[31] = system: NCI-H460 lung
[32] = system: MDA-MB-435
[33] = system: UACC-62 melanoma
[34] = system: 786-0 renal
[35] = system: HCC-2998 colon
[36] = system: RPMI-8226 leukemia
[37] = system: A549 NSCLC
[38] = system: HCT-15 colon
[39] = system: SK-OV-3 ovarian
[40] = system: HOP-62 NSCLC
[41] = system: MOLT-4 leukemia
[42] = system: NCI-H23 lung
[43] = system: SR leukemia
[44] = system: SK-MEL-2 melanoma
[45] = system: UACC-257 melanoma
[46] = system: NCI/ADR-RES ovarian
[47] = system: IGROV1 ovarian
[48] = system: ACHN renal
[49] = system: NCI-H522 lung
[50] = system: SF-268 CNS
[51] = system: SF-539 CNS
[52] = system: SW-620 colon
[53] = system: NCI-H226 lung
[54] = system: SF-295 CNS
[55] = system: MCF7 breast
[56] = system: HCT-116 colon
[57] = system: MDA-N
[58] = system: SNB-19 CNS
[59] = system: HL-60(TB) leukemia

`COC(=O)C(CCC(=O)CCl)N1C(=O)c2ccccc2C1=O` (stereo not drawn) was tested, and the TGI [1] was 29.3 µM, the TGI [2] was 23.8 µM and the TGI [3] was 32.4 µM. The TGI [4] was 26.8 µM, the TGI [5] was 35.3 µM and the TGI [6] was 21.8 µM. For the same compound, the TGI [7] was 12.1 µM, the TGI [8] was 14.8 µM and the TGI [9] was 26.5 µM. For the same compound, the TGI [10] was 16.7 µM, the TGI [11] was 24.2 µM and the TGI [12] was 6.45 µM. For the same compound, the TGI [13] was 11.9 µM, the TGI [14] was 21.5 µM and the TGI [15] was 27.4 µM. The TGI [16] was 6.34 µM, the TGI [17] was 26.9 µM and the TGI [18] was 36.6 µM. It also gave a TGI [19] of 12.7 µM, a TGI [20] of 23.5 µM and a TGI [21] of 28.4 µM. It also gave a TGI [22] of 4.02 µM, a TGI [23] of 36.9 µM and a TGI [24] of 28.9 µM. For the same compound, the TGI [25] was 28.7 µM, the TGI [26] was 26.7 µM and the TGI [27] was 16.1 µM. The TGI [28] was 27.6 µM, the TGI [29] was 19 µM and the TGI [30] was 40.3 µM. It also gave a TGI [31] of 29.5 µM, a TGI [32] of 22 µM and a TGI [33] of 26 µM. It also gave a TGI [34] of 15.2 µM, a TGI [35] of 22.5 µM and a TGI [36] of 20.7 µM. The TGI [37] was 35.3 µM, the TGI [38] was 15.8 µM and the TGI [39] was 31.5 µM. The TGI [40] was 29 µM, the TGI [41] was 6.94 µM and the TGI [42] was 22.8 µM. For the same compound, the TGI [43] was 11.7 µM, the TGI [44] was 21.9 µM and the TGI [45] was 22.2 µM. For the same compound, the TGI [46] was 29.7 µM, the TGI [47] was 26.9 µM and the TGI [48] was 13.9 µM. The TGI [49] was 4.06 µM, the TGI [50] was 28.4 µM and the TGI [51] was 22 µM. It also gave a TGI [52] of 15.6 µM, a TGI [53] of 29.9 µM and a TGI [54] of 35.2 µM. The TGI [55] was 18.5 µM, the TGI [56] was 14.5 µM and the TGI [57] was 23.9 µM. It also gave a TGI [58] of 37.1 µM and a TGI [59] of 5.71 µM.

`C[Si](C)(c1ccc(C(=O)O)cc1)c1ccc(C(=O)O)cc1` gave a TGI [1] of over 100 µM, a TGI [2] of over 100 µM and a TGI [3] of over 100 µM. The TGI [4] was over 100 µM, the TGI [5] was over 100 µM and the TGI [6] was over 100 µM. For the same compound, the TGI [7] was over 100 µM, the TGI [8] was over 100 µM and the TGI [9] was over 100 µM. For the same compound, the TGI [10] was over 100 µM, the TGI [12] was over 100 µM and the TGI [13] was over 100 µM. The TGI [14] was over 100 µM, the TGI [15] was over 100 µM and the TGI [16] was over 100 µM. It also gave a TGI [17] of over 100 µM, a TGI [18] of over 100 µM and a TGI [19] of over 100 µM. The TGI [20] was over 100 µM, the TGI [21] was over 100 µM and the TGI [22] was over 100 µM. For the same compound, the TGI [23] was over 100 µM, the TGI [24] was over 100 µM and the TGI [25] was over 100 µM. It also gave a TGI [26] of over 100 µM, a TGI [27] of over 100 µM and a TGI [28] of over 100 µM. It also gave a TGI [29] of over 100 µM, a TGI [30] of over 100 µM and a TGI [31] of over 100 µM. The TGI [32] was over 100 µM, the TGI [33] was over 100 µM and the TGI [34] was over 100 µM. It also gave a TGI [36] of over 100 µM, a TGI [37] of over 100 µM and a TGI [38] of over 100 µM. The TGI [39] was over 100 µM, the TGI [40] was over 100 µM and the TGI [41] was over 100 µM. The TGI [42] was over 100 µM, the TGI [43] was over 100 µM and the TGI [44] was over 100 µM. For the same compound, the TGI [45] was over 100 µM, the TGI [46] was over 100 µM and the TGI [47] was over 100 µM. For the same compound, the TGI [48] was over 100 µM, the TGI [49] was over 100 µM and the TGI [50] was over 100 µM. It also gave a TGI [51] of over 100 µM, a TGI [52] of over 100 µM and a TGI [53] of over 100 µM. For the same compound, the TGI [54] was over 100 µM, the TGI [55] was over 100 µM and the TGI [56] was over 100 µM. For the same compound, the TGI [57] was over 100 µM and the TGI [58] was over 100 µM.

`Cc1cc(Cl)ccc1OCC(=O)Nc1nc(N)nc(N)n1` gave a TGI [1] of over 100 µM, a TGI [2] of over 100 µM and a TGI [3] of over 100 µM. For the same compound, the TGI [4] was over 100 µM, the TGI [5] was over 100 µM and the TGI [6] was over 100 µM. The TGI [7] was over 100 µM, the TGI [8] was over 100 µM and the TGI [9] was over 100 µM. The TGI [10] was over 100 µM, the TGI [11] was over 100 µM and the TGI [12] was over 100 µM. For the same compound, the TGI [13] was over 100 µM, the TGI [14] was over 100 µM and the TGI [15] was over 100 µM. It also gave a TGI [16] of over 100 µM, a TGI [17] of over 100 µM and a TGI [18] of over 100 µM. The TGI [19] was over 100 µM, the TGI [20] was over 100 µM and the TGI [21] was over 100 µM. It also gave a TGI [22] of over 100 µM, a TGI [23] of over 100 µM and a TGI [24] of over 100 µM. It also gave a TGI [25] of over 100 µM, a TGI [26] of over 100 µM and a TGI [27] of over 100 µM. For the same compound, the TGI [28] was over 100 µM, the TGI [29] was over 100 µM and the TGI [30] was over 100 µM. It also gave a TGI [31] of over 100 µM, a TGI [32] of over 100 µM and a TGI [33] of over 100 µM. For the same compound, the TGI [34] was over 100 µM, the TGI [36] was over 100 µM and the TGI [37] was over 100 µM. The TGI [38] was over 100 µM, the TGI [39] was over 100 µM and the TGI [40] was over 100 µM. For the same compound, the TGI [41] was over 100 µM, the TGI [42] was over 100 µM and the TGI [43] was over 100 µM. The TGI [44] was over 100 µM, the TGI [45] was over 100 µM and the TGI [46] was over 100 µM. For the same compound, the TGI [47] was over 100 µM, the TGI [48] was over 100 µM and the TGI [49] was over 100 µM. It also gave a TGI [50] of over 100 µM, a TGI [51] of over 100 µM and a TGI [52] of over 100 µM. It also gave a TGI [53] of over 100 µM, a TGI [54] of over 100 µM and a TGI [55] of over 100 µM. For the same compound, the TGI [56] was over 100 µM, the TGI [57] was over 100 µM and the TGI [58] was over 100 µM. For the same compound, the TGI [59] was over 100 µM.
